Data set [1] relates to HaCaT (human immortal keratinocyte cell line). In words: MTT cytotoxicity assay, HaCaT. The class given is cell-based. The conditions noted are these: HaCaT normal cells, 72 h. As to the method:
(§1) The human primary (SW480), metastatic (SW620) colon cancer, metastatic prostate cancer (PC3) and human immortal keratinocyte (HaCaT) cell lines were purchased from the American Type Culture Collection (ATCC, Rockville, USA). The cells were cultured in medium according to protocols (MEM for SW480 and SW620, RPMI 1640 for PC3 and DMEM for HaCaT cells) supplemented with 10% fetal bovine serum (FBS), penicillin (100 U/mL) and streptomycin (100 μg/mL) and cultured in 37 °C/ 5% CO2 humidified incubator. The cells were cultured until appropriate confluence was achieved (80–90%). Next, they were harvested by treatment with 0.25% trypsin (Gibco Life Technologies, USA) and used for studies.
(§2) Cells without studied compounds in medium were used as a control.
(§3) The cell viability was assessed by determination of MTT salt (3-(4,5-dimethylthiazol-2-yl)-2,5-diphenyltetrazolium bromide) conversion by mitochondrial dehydrogenase. MTT assay was performed as previously described. Experiments were repeated three times. Cell viability was presented as a percentage of MTT reduction in the treated cells versus the control cells. Number of viable cells cultured without studied compounds was assumed to be 100%. Decreased relative MTT level means decreased cell viability. Thiourea complexes with the highest cytotoxic potential assessed by MTT determination (with the lowest IC50) were chosen for subsequent assessments of cytotoxicity mechanisms.

The subject of data set [2] is SW620 (human metastatic colon cancer). In words: MTT cytotoxicity assay, SW620. It counts as cell-based. The following applies: SW620, 72 h. As to the method:
as §1, §2
The cell viability was assessed by determination of MTT salt (3-(4,5-dimethylthiazol-2-yl)-2,5-diphenyltetrazolium bromide) conversion by mitochondrial dehydrogenase. MTT assay was performed as previously described. Experiments were repeated three times. Cell viability was presented as a percentage of MTT reduction in the treated cells versus the control cells. Number of viable cells cultured without studied compounds was assumed to be 100%. Decreased relative MTT level means decreased cell viability.
Background: Tetrazolium assays rely on reduction of a dye to a coloured formazan, in cell work by metabolically active cells.

In data set [3] the test system is SW480 (human primary colon cancer). In words: MTT cytotoxicity assay, SW480. It counts as cell-based. The conditions noted are these: SW480, 72 h. The procedure:
as §1, §2, §3

Another data set relates to HaCaT cell. Details: method as in PMID 30248936. The following applies: at the concentration 8 µM; cited from earlier work.
Data set [4] relates to PC3 (human metastatic prostate cancer). Put plainly: MTT cytotoxicity assay, PC3. The class given is cell-based. The following applies: PC3, 72 h, MTT. As to the method:
as §1, §2, §3

The next data set deals with all strains. Put plainly: MIC, all strains. It counts as cell-based. The procedure:
The antimicrobial activity of the compounds was tested on Gram-positive bacteria (Staphylococcus aureus NCTC 4163, Staphylococcus aureus ATCC 25923, Staphylococcus aureus ATCC 6538, Staphylococcus aureus ATCC 29213, Staphylococcus epidermidis ATCC 12228, Staphylococcus epidermidis ATCC 35984), Gram-negative rods (Escherichia coli ATCC 10538, Escherichia coli ATCC 25922, Pseudomonas aeruginosa ATCC 15442, Pseudomonas aeruginosa ATCC 27863) and yeasts (Candida albicans ATCC 10231, Candida albicans ATCC 90028, Candida parapsilosis ATCC 22019). Hospital methicillin-resistant strains of Staphylococcus aureus and Staphylococcus epidermidis were obtained from the collection of the Department of Pharmaceutical Microbiology, Medical University of Warsaw, Poland.
Antifungal activities were assessed using Mueller–Hinton agar + 2% glucose and 0.5 µg/mL methylene blue dye medium. Sterile filter paper discs (9 mm diameter, Whatman Number 3 chromatography paper) were dripped with tested compound solutions (in dimethylsulfoxide, DMSO) to load 400 μg of a given compound per disc. […] The results (diameter of the growth inhibition zone) were read after 18 h of incubation at 35 °C. […] Minimal inhibitory concentrations (the lowest concentration of a tested agent that prevents visible growth of a microorganism) were read after 18 h (bacteria) or 24 h (yeasts) of incubation at 35 °C.

Data set [5] relates to HaCaT cells. Details: method as in ref 1S. The conditions noted are these: also printed as 2 mM; ref 1S; cited from earlier work.
For the next data set, the system named is PANC-1. The arrangement: method as in ref 3S. The conditions noted are these: PANC-1, 100 μM; ref 3S; cited from earlier work.
The subject of data set [6] is PC3 cells. Details: method as in ref 3S. The conditions noted are these: 200 μM, ref 3S; cited from earlier work.
A further data set has as its system colon cancer cells. The arrangement: method as in ref 2S. The following applies: at 100 μM, ref 2S; cited from earlier work.
The subject of data set [7] is PC3 cells. In words: Annexin V-FITC/PI flow cytometry, PC3. The class given is cell-based, human. The following applies: PC3, 72 h. The procedure:
(§4) The cells were cultured and harvested under the conditions described in the cell culture section. […] The effect of these compounds on the process of early and late apoptosis and necrosis was determined, as described previously, by dual staining with annexin V-FITC and propidium iodide according to manufacturer’s protocol (Becton Dickinson). The cells that were annexin V-FITC positive and PI-negative were identified as early apoptotic and annexin V-FITC and PI-positive as late apoptotic or necrotic.
Background: A flow cytometer gives signals particle by particle.

The test system of data set [8] is HaCaT cells. Put plainly: Annexin V-FITC/PI flow cytometry, HaCaT. It counts as cell-based, human. The following applies: 72 h. As to the method: as §4
Data set [9] relates to HaCaT cells. Put plainly: LDH release assay, HaCaT. The class given is cell-based, human. The following applies: doxorubicin (1.5 μM stated for the cancer lines). As to the method:
The presence of lactate dehydrogenase (LDH) in culture medium indicates a disturbance of the integrity of the cellular membrane. The LDH activity was performed after 72 h incubation of cells (1 × 10^4 cells per well) in 96-well plates with selected compounds according to manufacturer’s protocol (Roche Diagnostics, Germany), as was described by Chrzanowska et al.. Compound mediated cytotoxicity was determined using equation: ((A test sample−A low control)/ (A high control−A low control)) × 100% (A-absorbance), where “low control” means cells in medium with 2% FBS without tested compounds, and “high control” means cells incubated in medium with 2% FBS and 1% Triton X-100 (100% LDH release). The cytotoxicity was expressed as percentage of LDH release as compared with the maximum release of LDH from Triton-X-100-treated cells.
On the technique in general: LDH leaks from cells whose membrane has failed.

Another data set has as its system interleukin-6 (IL-6). In words: IL-6 level assay (ELISA). The class given is cell-based, human. The conditions noted are these: PC3, IC50 dose, 72 h. The procedure: IL-6 concentration at all studied cancer cells and normal HaCaT cell lines was measured by ELISA kit (Diaclon SAS Besancon Cedex, France). […] IL-6 in cell culture supernatant was measured using enzyme-linked immunosorbent assay in accordance with the manufacturer’s protocol.

A further data set concerns SW620 cells. Put plainly: Annexin V-FITC/PI flow cytometry, SW620. It counts as cell-based, human. The following applies: SW620, 72 h. As to the method: as §4
The next data set deals with SW480 cells. Put plainly: Annexin V-FITC/PI flow cytometry, SW480. The class given is cell-based, human. The following applies: SW480, 72 h. As to the method: as §4
Data set [10] concerns clinical methicillin-resistant strains of S. aureus (MRSA) and S. epidermidis (MRSE). The conditions noted are these: cited from earlier work.
The subject of data set [11] is standard bacterial strains. Details: method as in PMID 29499458. The following applies: cited from earlier work.

In the case of `N.N.[Cl][Pt][Cl]` [Cisplatin, reference compound], the IC50 (in general, the midpoint of a concentration-inhibition curve) in data set [1] amounted to 6.3 ± 0.7 µM; in data set [2], 6.7 ± 1.1 µM; in data set [3], 10.4 ± 0.9 µM.
As to `O=[N+]([O-])c1cc(NC(=S)Nc2ccc(Cl)c(Cl)c2)ccc1Cl` [Compound L5, 1-(4-chloro-3-nitrophenyl)-3-(3,4-dichlorophenyl)thiourea], in the data set on HaCaT cell, the “decrease in HaCaT cell viability” value is “approximately 20%”.
On to `[Cl][Cu][Cl]` [CuCl2, copper (II) chloride, reference compound], for which the IC50 in data set [4] was 106 ± 6.3 µM; in data set [1], 114 ± 4.8 µM; in [1] (listed as copper (II) chloride), greater than 100 µM; in data set [2], 96.3 ± 5.2 µM; in data set [3], 109 ± 7.6 µM. In the data set with all strains, the MIC (in general, the least concentration at which growth counts as inhibited) is no less than 128 µg/mL.
As to `CN(C)C=O` [DMF, dimethylformamide], in the data set on HaCaT cells [5], the “concentration at which DMF influenced HaCaT cells” value is 140 µg/mL. Besides, the apoptosis is given as 30% with PANC-1 and 85% in the data set with PC3 cells [6]. For the same molecule, in the data set with colon cancer cells, the LDH release result was “not increase LDH release”.
As for `COc1cccc2c1C(=O)c1c(O)c3c(c(O)c1C2=O)C[C@@](O)(C(=O)CO)C[C@@H]3O[C@H]1C[C@H](N)[C@H](O)[C@H](C)O1` [Doxorubicin, reference compound], the “cells at the necrotic stage” value with PC3 cells [7] is 50%; in the data set with HaCaT cells [8], 42%; in the data set with SW620 cells it was 51%; in the data set with SW480 cells, 86%. Also, the “late apoptosis, % of cells” value in the data set with PC3 cells [7] is on record as 23%. Besides, the LDH release in the data set on HaCaT cells [9] came out at 80%. The “reduction of IL-6 secretion, times” value in the data set with interleukin-6 (IL-6) is recorded as “almost twofold”. For the same molecule, the IC50 was found to be 0.29 ± 0.1 µM in data set [1] (Homo sapiens) and 0.75 ± 0.1 µM in data set [3] (Homo sapiens).
Turning to “copper (II) complex of 1-(3-chloro-4-fluorophenyl)-3-[3-trifluoromethyl)phenylthiourea”, the MIC in data set [10] is 4 to 8 µg/mL; in data set [11], 4 to 256 µg/mL.

These data come from PMC8584173, “The Cytotoxic Effect of Copper (II) Complexes with Halogenated 1,3-Disubstituted Arylthioureas on Cancer and Bacterial Cells” (International Journal of Molecular Sciences, 2021).
